Experimental data as given in US20190110476A1, “NOVEL ISOTHIAZOLAMIDES, PROCESSES FOR THEIR PREPARATION AND THEIR USE AS FUNGICIDES” (priority 2014, published 2019).
Marks after values point to notes of the source that are not given here.

Assay: Measurement of LogP values by HPLC on reversed phase columns (EEC directive 79/831 Annex V.A8)
Assay type: physicochemical
How it was run: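 LogP measured by reversed-phase HPLC following EEC directive 79/831 Annex V.A8. Lambda-max taken from UV spectra at 200–400 nm at chromatographic peak maxima; diastereoisomer values listed separately.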

Row | SMILES | LogP
1 | O=C(NCc1ncc(C(F)(F)F)cc1Cl)c1snc(NC(=O)C2CC2)c1Cl [I-296] | 2.71[a]
2 | Nc1cc(C(=O)NCc2cc(F)cc(F)c2)sn1 [I-303] | 4.55[a]
3 | Nc1cc(C(=O)NCc2cccc(F)c2)sn1 [I-304] | 1.46[a]
4 | Nc1cc(C(=O)NCc2ccccc2F)sn1 [I-305] | 1.41[a]
5 | Nc1cc(C(=O)NCc2ccc(Cl)cc2Cl)sn1 [I-306] | 2.11[a]
6 | Nc1cc(C(=O)NCc2cc(Cl)cc(Cl)c2)sn1 [I-307] | 2.18[a]
7 | Nc1cc(C(=O)NCc2cccc(Cl)c2Cl)sn1 [I-308] | 2.02[a]
8 | O=C(NCc1ccc(F)cc1)c1cc(N(Cc2ccccc2)Cc2ccccc2)ns1 [I-309] | 4.36[a]
9 | O=C(NCc1cccc(F)c1)c1cc(N(Cc2ccccc2)Cc2ccccc2)ns1 [I-310] | 4.40[a]
10 | O=C(NCc1ccccc1F)c1cc(N(Cc2ccccc2)Cc2ccccc2)ns1 [I-311] | 4.38[a]
11 | O=C(NCc1cc(Cl)cc(Cl)c1)c1cc(N(Cc2ccccc2)Cc2ccccc2)ns1 [I-312] | 2.90[a]
12 | O=C(NCc1cccc(Cl)c1Cl)c1cc(N(Cc2ccccc2)Cc2ccccc2)ns1 [I-313] | 5.01[a]
13 | O=C(NCc1ccc(Cl)cc1)c1cc(N(Cc2ccccc2)Cc2ccccc2)ns1 [I-314] | 4.85[a]
14 | CC(NC(=O)c1snc(N(Cc2ccccc2)Cc2ccccc2)c1-c1ccc(F)cc1)C1CCCCC1 (stereo not shown) [I-317] | 6.63[a]
15 | O=C(NC1CCCCC1)c1snc(N(Cc2ccccc2)Cc2ccccc2)c1-c1ccc(F)cc1 [I-319] | 5.98[a]
16 | O=C(NCc1ccccc1F)c1snc(N(Cc2ccccc2)Cc2ccccc2)c1-c1ccc(F)cc1 [I-320] | 5.45[a]
17 | O=C(NCc1ccc(Cl)cc1)c1snc(N(Cc2ccccc2)Cc2ccccc2)c1-c1ccc(F)cc1 [I-321] | 5.72[a]
18 | O=C(NCc1ccc(F)cc1F)c1cc(N(Cc2ccccc2)Cc2ccccc2)ns1 [I-322] | 4.45[a]
19 | O=C(NCc1ccc(Cl)cc1Cl)c1cc(N(Cc2ccccc2)Cc2ccccc2)ns1 [I-323] | 5.17[a]
20 | Nc1nsc(C(=O)NCc2ccc(F)cc2C(F)(F)F)c1Cl [I-324] | 2.61[a]
21 | Cc1cc(C)c(CNC(=O)c2snc(N)c2Cl)cc1C [I-328] | 2.78[a]
22 | Cc1ccc(C(C)(C)C)c(CNC(=O)c2snc(N)c2Cl)c1 [I-329] | 3.46[a]
23 | Nc1nsc(C(=O)NCc2ccccc2F)c1-c1ccc(F)cc1 [I-335] | 2.43[a]
24 | Nc1nsc(C(=O)NCc2ccc(Cl)cc2)c1-c1ccc(F)cc1 [I-336] | 2.73[a]
25 | COc1ccc(CNc2nsc(C(=O)NCc3ccc(F)c(C)c3)c2Cl)cc1 [I-350] | 3.89[a]
26 | COc1ccc(CNc2nsc(C(=O)NCc3ccc(Br)cc3)c2Cl)cc1 [I-366] | 4.01[a]

Row | SMILES | LogP
27 | COc1ccc(CNc2nsc(C(=O)NCc3ccc(Cl)cc3C)c2Cl)cc1 [I-376] | 4.20[a]
28 | COc1ccc(CNc2nsc(C(=O)NCc3ccc(Cl)c(OC)c3)c2Cl)cc1 [I-390] | 3.76[a]
29 | COc1ccc(CNc2nsc(C(=O)NCc3cc(C)ccc3C3(C)CC3)c2Cl)cc1 [I-391] | 4.92[a]
30 | COc1ccc(CNc2nsc(C(=O)NCc3cc(C)ccc3C(C)C)c2Cl)cc1 [I-392] | 4.80[a]
31 | COc1ccc(CNc2nsc(C(=O)NCc3cc(Cl)ccc3Cl)c2Cl)cc1 [I-393] | 4.34[a]
32 | O=C(NCc1ccc(F)cc1F)c1cc(NC(=O)C(F)(F)F)ns1 [I-398] | 2.58[a]
33 | Cc1ccc(C(C)C)c(CNC(=O)c2snc(N)c2Cl)c1 [I-415] | 3.15[a]
34 | COc1ccc(CNc2nsc(C(=O)NCc3ccc(F)c(OC)c3F)c2Cl)cc1 [I-426] | 3.69[a]
35 | O=CNc1cc(C(=O)NCc2ccc(F)cc2F)sn1 [I-430] | 1.79[a]
36 | O=CNc1nsc(C(=O)NCc2ccc(F)cc2F)c1Cl [I-467] | 1.89[a]
37 | CON(Cc1ccc(F)cc1F)C(=O)c1snc(N)c1Cl [I-542] | 2.50[a]
38 | O=C(Nc1nsc(C(=O)NCc2ccc(Cl)cc2)c1Cl)c1ccccc1 [I-569] | 2.97[a]
39 | CC(=O)Nc1nsc(C(=O)NCc2ccc(Cl)cc2)c1Cl [I-570] | 2.03[a]
40 | CC(=O)N(C(C)=O)c1nsc(C(=O)NCc2ccc(Cl)cc2)c1Cl [I-571] | 2.99[a]
41 | COc1ccc(CNc2nsc(C(=O)NC3CC4CCC3(C)C4(C)C)c2Cl)cc1 (stereo not shown) [I-572] | 5.02[a];
42 | O=C(NCc1ccc(Cl)cc1)c1snc(NC(=O)C(F)F)c1Cl [I-574] | 2.51[a]
43 | O=C(NCc1ccc(Cl)cc1)c1snc(NCC(F)(F)F)c1Cl [I-578] | 3.44[a]
44 | COC(=O)Nc1nsc(C(=O)NCc2ccc(Cl)cc2)c1Cl [I-579] | 2.29[a]
45 | C#CCNc1nsc(C(=O)NCc2ccc(Cl)cc2)c1Cl [I-581] | 2.97[a]
46 | O=C(NCc1ccc(Cl)cc1)c1snc(N(C(=O)c2ccccc2)C(=O)c2ccccc2)c1Cl [I-582] | 4.39[a]
47 | Cc1c(N)nsc1C(=O)NCc1c(F)cc(F)cc1F [I-583] | 1.69[a]
48 | Cc1c(N)nsc1C(=O)NCc1cc(F)c(F)c(F)c1 [I-584] | 1.92[a]
49 | Cc1c(N)nsc1C(=O)NCc1cc(F)cc(F)c1F [I-585] | 1.82[a]
50 | Cc1c(N)nsc1C(=O)NCc1c(F)ccc(F)c1F [I-596] | 1.49[a]
51 | COc1ccc(CNc2nsc(C(=O)NCc3ccc(C4CC4)cc3)c2C2CC2)cc1 [I-600] | 3.94[a]

Further lines, results first:

Row | LogP | SMILES
52 | 3.02[a] | Nc1nsc(C(=O)NC2CCCCC2c2ccccc2)c1Cl (stereo not shown) [I-287]
53 | 2.71[a] | Nc1nsc(C(=O)NC2CCCC2c2ccccc2)c1Cl (stereo not shown) [I-288]
54 | 2.86[a] | O=C(NC1CCCC1c1ccccc1)c1snc(NC(=O)C2CC2)c1Cl (stereo not shown) [I-297]
55 | 3.19[a] | O=C(NC1CCCCC1c1ccccc1)c1snc(NC(=O)C2CC2)c1Cl (stereo not shown) [I-302]
56 | 6.27[a] | O=C(NCC1CCCCC1)c1snc(N(Cc2ccccc2)Cc2ccccc2)c1-c1ccc(F)cc1 [I-318]
57 | 1.91[a] | COc1cccc(CNC(=O)c2snc(N)c2Cl)c1F [I-325]
58 | 2.50[a] | Cc1ccc(C)c(CNC(=O)c2snc(N)c2Cl)c1 [I-326]
59 | 2.88[a] | Nc1nsc(C(=O)NCc2cc(Cl)ccc2C(F)(F)F)c1Cl [I-327]
60 | 2.96[a] | Nc1nsc(C(=O)NCC2CCCCC2)c1-c1ccc(F)cc1 [I-332]
61 | 3.29[a] | C[C@H](NC(=O)c1snc(N)c1-c1ccc(F)cc1)C1CCCCC1 [I-333]
62 | 2.66[a] | Nc1nsc(C(=O)NC2CCCCC2)c1-c1ccc(F)cc1 [I-334]
63 | 1.30[a] | Nc1nsc(C(=O)NCC2CC2)c1Cl [I-337]
64 | 2.28[a] | Cc1cc(CNC(=O)c2snc(N)c2Cl)ccc1F [I-349]
65 | 2.21[a] | Nc1nsc(C(=O)NCc2ccc(Cl)cc2)c1C1CC1 [I-358]
66 | 2.37[a] | Nc1nsc(C(=O)NCC2CCCCC2)c1C1CC1 [I-359]
67 | 2.00[a] | Nc1nsc(C(=O)NC2CCCCC2)c1C1CC1 [I-360]
68 | 1.88[a] | Nc1nsc(C(=O)NCc2ccccc2F)c1C1CC1 [I-361]
69 | 2.57[a] | Nc1nsc(C(=O)N(Cc2cc(F)ccc2F)C2CC2)c1Cl [I-362]
70 | 2.80[a] | Cc1ccc(F)c(CN(C(=O)c2snc(N)c2Cl)C2CC2)c1 [I-363]
71 | 2.86[a] | Nc1nsc(C(=O)N(Cc2cc(Cl)ccc2F)C2CC2)c1Cl [I-364]
72 | 3.29[a] | Nc1nsc(C(=O)N(Cc2cc(Cl)ccc2Br)C2CC2)c1Cl [I-365]
73 | 2.39[a] | Nc1nsc(C(=O)NCc2ccc(Br)cc2)c1Cl [I-372]
74 | 2.60[a] | Cc1cc(Cl)ccc1CNC(=O)c1snc(N)c1Cl [I-389]
75 | 5.88[a] | O=C(NCC1CCCCC1)c1snc(N(Cc2ccccc2)Cc2ccccc2)c1C(F)F [I-394]
76 | 3.29[a] | Cc1ccc(C2(C)CC2)c(CNC(=O)c2snc(N)c2Cl)c1 [I-414]

Row | LogP | SMILES
77 | 2.71[a] | Nc1nsc(C(=O)NCc2cc(Cl)ccc2Cl)c1Cl [I-416]
78 | 2.66[a] | Nc1nsc(C(=O)NCC2CCCCC2)c1C(F)F [I-417]
79 | 3.85[a] | C[C@H](NC(=S)c1snc(N)c1Cl)C1CCCCC1 [I-418]
80 | 4.11[a] | C[C@H](NC(=O)c1snc(NCC(F)(F)F)c1Cl)C1CCCCC1 [I-427]
81 | 4.84[a] | C[C@H](NC(=S)c1snc(NC2CC2)c1Cl)C1CCCCC1 [I-428]
82 | 5.14[a] | C[C@H](NC(=S)c1snc(NCC(F)(F)F)c1Cl)C1CCCCC1 [I-429]
83 | 3.20[c] | CCCCC(=O)Nc1nsc(C(=O)NCC2CCCCC2)c1Cl [I-450]
84 | 2.12[a] | COc1c(F)ccc(CNC(=O)c2snc(N)c2Cl)c1F [I-464]
85 | 2.23[a] | COc1cccc(CNC(=O)c2snc(N)c2Cl)c1Cl [I-465]
86 | 3.06[a] | C[C@H](NC(=O)c1snc(NC(=O)C(F)F)c1Cl)C1CCCCC1 [I-522]
87 | 2.51[a] | Nc1nsc(C(=O)NCC2CCCCC2)c1Br [I-539]
88 | 5.22[a] | O=C(NCC1CCCCC1)c1cc(N(Cc2ccccc2)Cc2ccccc2)ns1 [I-540]
89 | 6.25[a] | O=C(NCC1CCCCC1)c1snc(N(Cc2ccccc2)Cc2ccccc2)c1Br [I-541]
90 | 3.04[a] | CON(CC1CCCCC1)C(=O)c1snc(N)c1Cl [I-543]
91 | 3.07[a] | O=C(NCc1ccc(Cl)cc1)c1snc(NC2CC2)c1Cl [I-580]
92 | 1.61[a] | Cc1c(N)nsc1C(=O)NCc1c(F)cccc1Cl [I-587]
93 | 1.64[a] | Cc1c(N)nsc1C(=O)NCc1cc(F)c(F)cc1F [I-588]
94 | 1.68[a] | Cc1c(N)nsc1C(=O)NCc1ccc(F)c(F)c1F [I-597]
95 | 2.82[a] | CCC(=O)Nc1nsc(C(=O)NC(C)C2CCCCC2)c1Cl (stereo not shown) [I-601]
96 | 2.48[a] | Nc1nsc(C(=O)NCc2ccc(C3CC3)cc2)c1C1CC1 [I-606]
97 | −0.20[c] | CN1C2CCC1CC(NC(=O)c1snc(N)c1Cl)C2 (stereo not shown) [I-607]
98 | 3.05[a] | C#Cc1c(NC(=O)C(F)(F)F)nsc1C(=O)NCC1CCCCC1 [I-609]
99 | 2.17[a] | Nc1nsc(C(=O)NCC2(F)CCCCC2)c1Cl [I-615]
100 | 1.90[c] | Nc1nsc(C(=O)NCC2CCCCC2)c1C#CCO [I-618]
